The text below walks through data of US6506893B1, “Polynucleotides and their use for detecting resistance to streptogramin A or to streptogramin B and related compounds” (priority 1997, dated 2003).

In test [1] the test system is S. aureus recipient RN4220 transformants with pIP1717. Put plainly: MIC by serial twofold dilutions in MHA, S. aureus RN4220 transformants carrying pIP1717 (vgaB). Conditions: Staphylococcus aureus; S. aureus RN4220 transformants with pIP1717 (2.4 kb HindIII-HaeIII fragment carrying vgaB), selected on 10 μg/ml erythromycin; read-out: PIIA MICs. It is filed as cell-based. The source says: First, the 2.4 kb HindIII-HaeIII fragment of pIP 1675, which contains only 10 nucleotide from vatB, was inserted into plasmid pOX300, and the recombinant plasmid, pIP1717 (FIG. 1B), was introduced by electroporation into the S. aureus recipient, RN4220 (Kreiswirth et al., 1983). Plasmid pOX300, also named pOX7, (Dyke and Curnock, 1989), is a hybrid of pUC18 and pE194ts and replicates in E. coli where it confers resistance to ampicillin and to erythromycin, and in S. aureus where only resistance to erythromycin is expressed. The S. aureus transformants selected on 10 μg/ml erythromycin were resistant to streptogramin A and related compounds (PIIA MICs=8-16 μg/ml). Thus, the 2.4-kb HindIII-HaeIII insert of pIP1717 (FIG. 1B) probably carried a streptogramin A resistance gene and was sequenced. The nucleotide (nucleotide) sequence of this fragment was determined by the dideoxy method (Sanger et al., 1977) with the reagents and the procedure recommended by the suppliers of the T^7 sequencing kit (Pharmacia International). Arrows indicate the direction and extent of each dideoxy-sequencing reaction. (FIG. 1B).
(§1) Minimal inhibitory concentrations (MICs) of antibiotics were determined by serial twofold dilutions of antibiotics in MHA (Ericson H. M. and S. C. Sherris, ActaPathol. Microbiol. Scand., 1971, Suppl. 217:Section B).

The test system of test [2] is Staphylococci resistant to synergistic mixtures of A and B compounds. Conditions: Allignet et al., 1996; cited from earlier work.
Test [3] concerns S. aureus recipient strain RN4220 transformant harboring pIP1714. Description: Susceptibility to antimicrobial agents, S. aureus RN4220 transformant harboring pIP1714 (vatC, vgbB). It counts as cell-based, Staphylococcus aureus. Conditions: RN4220 transformant with pIP1714, selected on BHIA with 10 μg/ml pristinamycin IIA. The method, then:
The strain BM10711 harbored several plasmids including pIP1714 (5kb). This plasmid was […] by electroporation in a S. aureus recipient strain, RN4220. The transformant, harboring pIP1714, was selected on BHIA containing 10 μg/ml pristinamycin IIA.
Susceptibility to antimicrobial agents was determined with a disk diffusion assay and commercially available disks (Diagnostic Pasteur). Additional disks prepared in our laboratory contained streptogramin A (20 μg) or streptogramin B (40 μg).
as §1

As for `CC1=C\[C@@H](O)CC(=O)Cc2nc(co2)C(=O)N2CCC=C2C(=O)O[C@H](C(C)C)[C@H](C)/C=C/C(=O)NC\C=C\1` [PIIA, pristinamycin IIA], the figures for the MIC in test [1] and in test [2] were 8 to 16 µg/mL and at least 8 µg/mL, respectively.
For streptogramin A, the “resistance conferred by plasmid” value in test [3] was “resistances”.
Still for that read-out and setting: under streptogramin B stands “resistances”.
